Assay results from ChEMBL document CHEMBL1201862, “PubChem BioAssay data set” (2004).
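In this assay, cells in 96-well plates receive the compound at five concentrations for 48 hours. Endpoints are linearly interpolated between the surrounding concentrations. GI50 = concentration required for 50% inhibition of growth.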 Calls of active or inactive are those of the source. Rule as the data show it: active = GI50 up to about 1.1 µM and inactive = higher.

Tests used:
Experiment in all cases: NCI-60 cell line screen, 48 h
[1] = test system: UO-31
[2] = test system: NCI-H460
[3] = test system: SF-295
[4] = test system: M14
[5] = test system: A498
[6] = test system: SNB-19
[7] = test system: IGROV-1
[8] = test system: PC-3
[9] = test system: SK-MEL-28
[10] = test system: CAKI-1
[11] = test system: MCF7
[12] = test system: MDA-MB-231
[13] = test system: TK-10
[14] = test system: K562
[15] = test system: OVCAR-3
[16] = test system: CCRF-CEM
[17] = test system: MOLT-4
[18] = test system: LOX IMVI
[19] = test system: RPMI-8226
[20] = test system: SR

| Structure (SMILES) | GI50 [1] | GI50 [2] | GI50 [3] | GI50 [4] | GI50 [5] | GI50 [6] | GI50 [7] | GI50 [8] | GI50 [9] | GI50 [10] | GI50 [11] | GI50 [12] | GI50 [13] | GI50 [14] | GI50 [15] | GI50 [16] | GI50 [17] | GI50 [18] | GI50 [19] | GI50 [20] |
| --- | --- | --- | --- | --- | --- | --- | --- | --- | --- | --- | --- | --- | --- | --- | --- | --- | --- | --- | --- | --- |
| CCN(CC)Cc1cc(Nc2c3ccccc3nc3c2[nH]c2ccccc23)cc(CN(CC)CC)c1O | 1.68 µM (inactive) | 0.294 µM (active) | 1.28 µM (inactive) | 0.303 µM (active) | 1.53 µM (inactive) | 1.21 µM (inactive) | 0.861 µM (active) | 0.64 µM (active) | 2.4 µM (inactive) | 1.77 µM (inactive) | 1.34 µM (inactive) | 1.05 µM (active) | 2.42 µM (inactive) | 0.631 µM (active) | – | – | – | – | – | – |
| Cc1cc(N(CCC#N)S(=O)(=O)c2ccccc2)ccc1/C=N/c1ccc(C(=O)O)cc1 | 11.1 µM (inactive) | 19.1 µM (inactive) | 29.1 µM (inactive) | 9.77 µM (inactive) | 29.6 µM (inactive) | 29.6 µM (inactive) | 30 µM (inactive) | > 100 µM (inactive) | 15.3 µM (inactive) | 2.23 µM (inactive) | > 100 µM (inactive) | > 100 µM (inactive) | 8.73 µM (inactive) | 7.96 µM (inactive) | 10.1 µM (inactive) | 6.4 µM (inactive) | 6.98 µM (inactive) | 13.2 µM (inactive) | – | – |
| CCOC(=O)/C(C#N)=C/c1ccc2c(-c3c(OCC)ccc4cc(/C=C(\C#N)C(=O)OCC)ccc34)c(OCC)ccc2c1 | > 100 µM (inactive) | > 100 µM (inactive) | > 100 µM (inactive) | 15.7 µM (inactive) | > 100 µM (inactive) | > 100 µM (inactive) | > 100 µM (inactive) | > 100 µM (inactive) | > 100 µM (inactive) | > 100 µM (inactive) | > 100 µM (inactive) | 18.5 µM (inactive) | > 100 µM (inactive) | > 100 µM (inactive) | > 100 µM (inactive) | > 100 µM (inactive) | > 100 µM (inactive) | > 100 µM (inactive) | > 100 µM (inactive) | – |
| O=C1CCCCC/C1=C\c1ccc(Cl)cc1 | 27.2 µM (inactive) | 35.2 µM (inactive) | 22 µM (inactive) | 34.4 µM (inactive) | 33 µM (inactive) | 55.1 µM (inactive) | 67.6 µM (inactive) | 19.9 µM (inactive) | 49.3 µM (inactive) | 37.8 µM (inactive) | – | 73.6 µM (inactive) | 28.1 µM (inactive) | – | 47.8 µM (inactive) | 22.6 µM (inactive) | 26.2 µM (inactive) | 28.9 µM (inactive) | 25.4 µM (inactive) | 23.1 µM (inactive) |
| CN(C)c1ccc(/N=N/c2ccccn2)cc1 | 24.1 µM (inactive) | 28.8 µM (inactive) | 37 µM (inactive) | 9.82 µM (inactive) | 22.1 µM (inactive) | 58.6 µM (inactive) | 5.93 µM (inactive) | 3.97 µM (inactive) | > 100 µM (inactive) | 32.2 µM (inactive) | 3.18 µM (inactive) | 20.8 µM (inactive) | 35.7 µM (inactive) | 4.61 µM (inactive) | 4.21 µM (inactive) | 4.17 µM (inactive) | 4.17 µM (inactive) | 57.5 µM (inactive) | 11.3 µM (inactive) | – |
| O=C1/C(=C\c2ccc(O)cc2)CCC/C1=C/c1ccc(Cl)c(Cl)c1 | 2.75 µM (inactive) | – | 2.65 µM (inactive) | 2.13 µM (inactive) | 3.39 µM (inactive) | 5.51 µM (inactive) | 0.331 µM (active) | 3.57 µM (inactive) | 4.1 µM (inactive) | 4.82 µM (inactive) | 2.69 µM (inactive) | 3.38 µM (inactive) | 2.98 µM (inactive) | 2.67 µM (inactive) | 3.67 µM (inactive) | 0.374 µM (active) | 1.82 µM (inactive) | 1.47 µM (inactive) | 2.44 µM (inactive) | – |
| COc1ccc(/C(CCl)=C(\Nc2ccccc2)c2ccc(OC)c(OC)c2)cc1OC | 46.5 µM (inactive) | 82.6 µM (inactive) | 78 µM (inactive) | > 100 µM (inactive) | > 100 µM (inactive) | > 100 µM (inactive) | – | 65 µM (inactive) | > 100 µM (inactive) | > 100 µM (inactive) | > 100 µM (inactive) | 93.1 µM (inactive) | > 100 µM (inactive) | 58.3 µM (inactive) | > 100 µM (inactive) | 97.9 µM (inactive) | 28.6 µM (inactive) | > 100 µM (inactive) | 68.2 µM (inactive) | – |
| Cc1nc2ccc(F)cc2c2c1CCN2c1ccc(Cl)cc1 | 5.45 µM (inactive) | 7.38 µM (inactive) | 4.33 µM (inactive) | 8.85 µM (inactive) | 20.9 µM (inactive) | 36.6 µM (inactive) | 7.73 µM (inactive) | 3.85 µM (inactive) | 12.2 µM (inactive) | 13.9 µM (inactive) | 11.6 µM (inactive) | 4.04 µM (inactive) | 9.4 µM (inactive) | 2.26 µM (inactive) | 7.96 µM (inactive) | 5.82 µM (inactive) | – | 12.5 µM (inactive) | – | – |
| CN(C)CCCN1C(=S)N(CCCN(C)C)c2c3ccccc3nc3c([N+](=O)[O-])ccc1c23 | 5.66 µM (inactive) | 3.46 µM (inactive) | 8.38 µM (inactive) | 6.27 µM (inactive) | 7.71 µM (inactive) | 8.67 µM (inactive) | 3.06 µM (inactive) | 5.83 µM (inactive) | 13.6 µM (inactive) | 5.96 µM (inactive) | 5.47 µM (inactive) | 10.4 µM (inactive) | 10 µM (inactive) | 4.3 µM (inactive) | 6.21 µM (inactive) | 18.8 µM (inactive) | 5.58 µM (inactive) | 4.42 µM (inactive) | 6.81 µM (inactive) | – |
| COC(=O)c1c(C)cccc1/C=C1/Cc2c(C)cccc2C1=O | > 100 µM (inactive) | 67.9 µM (inactive) | > 100 µM (inactive) | – | 88.9 µM (inactive) | – | > 100 µM (inactive) | > 100 µM (inactive) | > 100 µM (inactive) | > 100 µM (inactive) | 8.97 µM (inactive) | > 100 µM (inactive) | > 100 µM (inactive) | – | > 100 µM (inactive) | – | > 100 µM (inactive) | 20.5 µM (inactive) | 3.44 µM (inactive) | – |
| CCCOc1ccc2sc(NC(=O)c3cc([N+](=O)[O-])cc([N+](=O)[O-])c3)nc2c1 | 18.5 µM (inactive) | 50.4 µM (inactive) | 35.6 µM (inactive) | 50.4 µM (inactive) | 23.7 µM (inactive) | 42.5 µM (inactive) | 10.6 µM (inactive) | 28.4 µM (inactive) | 50.5 µM (inactive) | 28.6 µM (inactive) | 40.2 µM (inactive) | 35 µM (inactive) | 28.1 µM (inactive) | 65.5 µM (inactive) | 26.3 µM (inactive) | 30.3 µM (inactive) | 36.3 µM (inactive) | 20.8 µM (inactive) | 31.8 µM (inactive) | – |
| CCOC(=O)c1cc2c([N+](=O)[O-])c(N)ccc2s1 | > 100 µM (inactive) | > 100 µM (inactive) | > 100 µM (inactive) | > 100 µM (inactive) | > 100 µM (inactive) | > 100 µM (inactive) | > 100 µM (inactive) | > 100 µM (inactive) | > 100 µM (inactive) | > 100 µM (inactive) | > 100 µM (inactive) | > 100 µM (inactive) | > 100 µM (inactive) | > 100 µM (inactive) | > 100 µM (inactive) | > 100 µM (inactive) | > 100 µM (inactive) | > 100 µM (inactive) | > 100 µM (inactive) | – |
| COc1cccc(/C=C2\S/C(=N/Nc3nc(C)c(C)s3)NC2=O)c1O | 74.1 µM (inactive) | > 100 µM (inactive) | > 100 µM (inactive) | > 100 µM (inactive) | > 100 µM (inactive) | > 100 µM (inactive) | 34.3 µM (inactive) | – | > 100 µM (inactive) | > 100 µM (inactive) | > 100 µM (inactive) | > 100 µM (inactive) | > 100 µM (inactive) | – | 87.1 µM (inactive) | – | 49.3 µM (inactive) | 95.7 µM (inactive) | – | – |
| C#CC[C@@H]1C(=O)N(Cc2ccc(OC)cc2)[C@@H](C(C)C)C(=O)N1Cc1ccc(OC)cc1 | 33.7 µM (inactive) | 30.7 µM (inactive) | 54.2 µM (inactive) | 36.5 µM (inactive) | 36 µM (inactive) | 64.4 µM (inactive) | > 100 µM (inactive) | 24 µM (inactive) | 84.7 µM (inactive) | > 100 µM (inactive) | 19.8 µM (inactive) | 83.2 µM (inactive) | 49.9 µM (inactive) | 32.4 µM (inactive) | 51.4 µM (inactive) | 0.458 µM (active) | 15.1 µM (inactive) | 36.4 µM (inactive) | – | – |
| CC(=O)CSCc1ccccn1 | > 100 µM (inactive) | 30.6 µM (inactive) | 80.9 µM (inactive) | 60.5 µM (inactive) | 51.1 µM (inactive) | 50.9 µM (inactive) | 37.8 µM (inactive) | 33.7 µM (inactive) | 40.2 µM (inactive) | – | – | 75.9 µM (inactive) | > 100 µM (inactive) | 23.6 µM (inactive) | 30.3 µM (inactive) | 39.9 µM (inactive) | 20.7 µM (inactive) | 41.5 µM (inactive) | 12.7 µM (inactive) | 21.5 µM (inactive) |
